Results taken from publication PMC12523804, “Evaluation of molecular mechanisms of (Z)-3-(pentadec-10′-enyl)-catechol (litreol) and synthetic derivatives as inhibitors of human leukotriene biosynthesis” (Redox Biology, 2025).

Experiments:
human PMNLs = experiment: Lactate dehydrogenase release (LDH assay) in PMNL; format: cell-based
Experimental: After treatment of PMNL, supernatants were centrifuged (600g × 5 min, 4 °C), and 100 μL of supernatant were mixed with 200 μL LDH reaction buffer (75 mM Tris/HCl, pH 7.4, 0.3 mM NADH, 1.5 mM Na-pyruvate) in a 96-well plate. The decrease of NADH was measured immediately by absorbance at 340 nm in a kinetic mode (every 7 s for 20 min; Multiskan Spectrum). As a positive control for maximal LDH release, cells treated with 1 % Triton X-100 were included in each experiment, while untreated cells and vehicle (DMSO) served as negative controls.

p38 MAPK = experiment: Western blot of p38 MAPK phosphorylation; format: cell-based, human; conditions: for fMLP-induced activation (phosphorylation) of p38 MAP kinase: PMNL, 1 μM compound, 1 μM fMLP
Experimental: (§1) Human polymorphonuclear leukocytes (PMNLs; 50 × 10^6), isolated from whole blood, were resuspended in 1 mL of cold PGC buffer. Briefly, neutrophils were pre-incubated for 15 min at 37 °C with test compounds (1 μM). […] The samples were subsequent centrifuged (1200g, 10 min) and the pellets were resuspended in 100 μL od SDS-PAGE loading buffer (2x) (Tris 1 M pH 8, EDTA 0.2 M, 10 % SDS, 10 % mercaptoethanol). Correct protein loading on the gels and transfer of proteins to the nitrocellulose membrane were confirmed by Ponceau staining. Membranes with transferred proteins were incubated overnight with primary antibodies in 1x Tris Buffered Saline (TBS) with 1 % Casein (Biorad- #1610782). Membranes were then washed and incubated with horseradish peroxidase-conjugated secondary antibodies for 1 h at room temperature. Blots were developed using enhanced chemiluminescence detection reagents ECL (Immobilion ECL Ultra Western HRP Substrate - Cat# WBULS0500 Millipore) and acquired using ChemiDoc Imaging System (BioRad). Antibody recognizing phosphorylated p38-MAPkinase, pERK, ERK, NfKB were from Cell Signalling Technology (Boston, MA) and used at 1:1000 dilution. Secondary antibodies were purchased from Biorad (170–6515; 170–6516) and used at 1:2000 diluition.

ERK = experiment: Western blot of ERK phosphorylation; format: cell-based, human; conditions: for fMLP-induced activation (phosphorylation) of ERK: PMNL, 1 μM compound, 1 μM fMLP
Experimental: as §1

5-LO = target: T1, 5-LO (Homo sapiens, UniProt P09917); experiment: cell-free 5-LO activity assay with purified human recombinant 5-LO; format: biochemical; parameters: made in house; conditions: for mechanism of 5-LO inhibition versus substrate AA: AA 2.5, 5, 10, 20, 40 and 80 μM; for mechanism of 5-LO inhibition versus substrate AA / AA concentration at which maximal inhibitory potency was reached: isolated 5-LO; for AA concentration at which maximal inhibitory potency was reached: varying AA
T1 sequence (P09917 1-674): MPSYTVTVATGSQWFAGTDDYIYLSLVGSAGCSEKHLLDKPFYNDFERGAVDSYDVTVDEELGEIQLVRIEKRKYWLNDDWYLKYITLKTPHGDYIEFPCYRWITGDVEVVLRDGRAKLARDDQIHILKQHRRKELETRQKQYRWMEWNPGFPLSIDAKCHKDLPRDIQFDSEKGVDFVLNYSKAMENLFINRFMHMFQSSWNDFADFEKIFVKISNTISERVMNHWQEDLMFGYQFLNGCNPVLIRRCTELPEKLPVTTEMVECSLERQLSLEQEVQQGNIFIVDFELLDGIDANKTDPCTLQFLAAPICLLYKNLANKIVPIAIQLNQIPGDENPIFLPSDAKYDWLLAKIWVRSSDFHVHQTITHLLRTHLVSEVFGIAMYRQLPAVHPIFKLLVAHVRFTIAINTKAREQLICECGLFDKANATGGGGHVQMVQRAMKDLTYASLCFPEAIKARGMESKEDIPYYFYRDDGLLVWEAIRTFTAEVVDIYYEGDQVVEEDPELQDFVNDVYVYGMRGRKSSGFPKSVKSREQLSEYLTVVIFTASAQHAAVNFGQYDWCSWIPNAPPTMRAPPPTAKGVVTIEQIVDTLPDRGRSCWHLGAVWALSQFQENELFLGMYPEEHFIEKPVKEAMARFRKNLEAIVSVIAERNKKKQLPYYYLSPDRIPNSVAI
Experimental: 5-LO was expressed in E. coli B121 (DE3) transformed with pT3- 5LO plasmid, and purification of 5-LO was performed as described previously. Briefly, E. coli was lysed in 50 mM tri-ethanolamine/HCl, pH 8.0, 5 mM EDTA, […] soybean trypsin inhibitor, 1 mM phenylmethanesulfonyl fluoride, 1 mM dithiothreitol and 1 mg/mL lysozyme and then sonified (3 × 15 s). The homogenate was then centrifuged at 40,000g for 20 min at 4°C. 5-LO in the supernatant was partially purified by affinity chromatography on an ATP-agarose column (Sigma-Aldrich). Semi-purified 5-LO was diluted in PBS containing EDTA (1 mM) and ATP (1 mM) and immediately used for 5-LO activity assays. Samples were pre-incubated with the test compounds or vehicle (0.1 % DMSO) for 10 min at 4°C. Samples were pre-warmed for 30 s at 37°C, and 2 mM CaCl2 plus the indicated concentrations of AA were added to start 5-LO product formation. The reaction was stopped after 10 min by addition of one volume of ice-cold methanol, and the formed metabolites were analyzed by HPLC. 5- LO products include the all-trans isomers of LTB4 as well as 5-HPETE and its corresponding alcohol 5-HETE.

Compound | cytotoxicity on PMNL (LDH levels in the supernatants) (human PMNLs) | phosphorylation and expression of p38 MAPK (Western blot) (p38 MAPK; LPS stimulation) | fMLP-induced activation (phosphorylation) of p38 MAP kinase (p38 MAPK) | phosphorylation and expression of ERK (Western blot) (ERK; LPS stimulation) | fMLP-induced activation (phosphorylation) of ERK (ERK) | IC50 (5-LO) [nM] | mechanism of 5-LO inhibition versus substrate AA (5-LO) | AA concentration at which maximal inhibitory potency was reached (5-LO) [µM]
CCCC/C=C\CCCCCCCCCc1cccc(O)c1O [CI, (Z)-3-(pentadec-10′-enyl)-catechol] | comparable to those of untreated controls | significantly inhibited | inhibited | significantly inhibited | inhibited | 60 ± 40 | excluding a substrate competitive mechanism | 20
CCCCCCCCCCCCCCCc1cccc(O)c1O [CS, 3-n-pentadecylcatechol] | comparable to those of untreated controls |  | did not show significant effects |  | did not show significant effects | 150 | not competitive | 2.5
